From patent US12466827B2, “1,3,4-oxadiazole derivative compounds as histone deacetylase 6 inhibitor, and the pharmaceutical composition comprising the same” (CHONG KUN DANG PHARMACEUTICAL CORP., priority 2020, dated 2025)

Columns and labels:
[1] = target: T1, human recombinant HDAC1 (Homo sapiens, UniProt Q13547); test: In vitro HDAC enzyme activity inhibition assay (HDAC1); format: biochemical; settings: Fluor de Lys-SIRT1 substrate 10 μM, 30° C., 60 minutes, fluorescence
T1 construct: purchased Enzo Life Sciences, Inc. BML-SE456
T1 sequence (Q13547 whole entry): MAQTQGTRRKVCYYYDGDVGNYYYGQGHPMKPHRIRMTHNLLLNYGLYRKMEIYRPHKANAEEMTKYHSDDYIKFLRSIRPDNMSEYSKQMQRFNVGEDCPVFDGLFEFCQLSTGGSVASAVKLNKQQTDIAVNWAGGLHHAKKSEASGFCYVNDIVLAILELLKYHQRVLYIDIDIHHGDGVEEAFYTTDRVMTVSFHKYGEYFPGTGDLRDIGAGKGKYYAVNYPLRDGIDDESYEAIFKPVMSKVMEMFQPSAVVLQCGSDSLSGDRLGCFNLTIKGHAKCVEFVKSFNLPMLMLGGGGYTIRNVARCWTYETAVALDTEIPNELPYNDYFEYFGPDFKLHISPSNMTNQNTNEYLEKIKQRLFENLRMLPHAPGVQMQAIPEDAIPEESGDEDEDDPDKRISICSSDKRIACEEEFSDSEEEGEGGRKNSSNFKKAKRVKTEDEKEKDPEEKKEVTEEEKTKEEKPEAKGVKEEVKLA
Description: (§1) In order to confirm the selectivity of the compounds represented by Chemical Formula I of the present invention to HDAC6 through HDAC1 and HDAC6 enzyme activity inhibition experiments, a comparison experiment was performed using the material that has already been developed as a control group.
(§2) HDAC enzyme activity was measured using the HDAC Fluorimetric Drug Discovery Kit (Enzo Life Sciences, Inc., BML-AK511, 516). For the HDAC1 enzyme activity test, human recombinant HDAC1 (BML-SE456) was used as an enzyme source and Fluor de Lys-SIRT1 (BNL-KI177) was used as a substrate. After dispensing 5-fold diluted compounds into a 96-well plate, 0.3 μg of enzyme and 10 μM substrate were added to each well of the plate and allowed to react at 30° C. for 60 minutes. Next, Fluor de Lys Developer II (BML-KI176) was added and reacted for 30 minutes to complete the reaction, and then the fluorescence values (Ex 360, Em 460) were measured using a multi-plate reader (Flexstation 3, Molecular Device). The HDAC6 enzymes were tested using human recombinant HDAC6 (382180) from Calbiochem Inc., according to the same protocol as the HDAC1 enzyme activity test method. With respect to the final result values, respective IC50 values were calculated using GraphPad Prism 4.0 program, and results thereof were summarized in Table 4 below.

[2] = target: T2, human recombinant HDAC6 (Homo sapiens, UniProt Q9UBN7); test: In vitro HDAC enzyme activity inhibition assay (HDAC6); format: biochemical; settings: for HDAC6 selectivity (fold): HDAC6 over HDAC1; for IC50: same protocol as the HDAC1 test, human recombinant HDAC6 (Calbiochem)
T2 construct: purchased Calbiochem Inc. 382180
T2 sequence (Q9UBN7 1-1215): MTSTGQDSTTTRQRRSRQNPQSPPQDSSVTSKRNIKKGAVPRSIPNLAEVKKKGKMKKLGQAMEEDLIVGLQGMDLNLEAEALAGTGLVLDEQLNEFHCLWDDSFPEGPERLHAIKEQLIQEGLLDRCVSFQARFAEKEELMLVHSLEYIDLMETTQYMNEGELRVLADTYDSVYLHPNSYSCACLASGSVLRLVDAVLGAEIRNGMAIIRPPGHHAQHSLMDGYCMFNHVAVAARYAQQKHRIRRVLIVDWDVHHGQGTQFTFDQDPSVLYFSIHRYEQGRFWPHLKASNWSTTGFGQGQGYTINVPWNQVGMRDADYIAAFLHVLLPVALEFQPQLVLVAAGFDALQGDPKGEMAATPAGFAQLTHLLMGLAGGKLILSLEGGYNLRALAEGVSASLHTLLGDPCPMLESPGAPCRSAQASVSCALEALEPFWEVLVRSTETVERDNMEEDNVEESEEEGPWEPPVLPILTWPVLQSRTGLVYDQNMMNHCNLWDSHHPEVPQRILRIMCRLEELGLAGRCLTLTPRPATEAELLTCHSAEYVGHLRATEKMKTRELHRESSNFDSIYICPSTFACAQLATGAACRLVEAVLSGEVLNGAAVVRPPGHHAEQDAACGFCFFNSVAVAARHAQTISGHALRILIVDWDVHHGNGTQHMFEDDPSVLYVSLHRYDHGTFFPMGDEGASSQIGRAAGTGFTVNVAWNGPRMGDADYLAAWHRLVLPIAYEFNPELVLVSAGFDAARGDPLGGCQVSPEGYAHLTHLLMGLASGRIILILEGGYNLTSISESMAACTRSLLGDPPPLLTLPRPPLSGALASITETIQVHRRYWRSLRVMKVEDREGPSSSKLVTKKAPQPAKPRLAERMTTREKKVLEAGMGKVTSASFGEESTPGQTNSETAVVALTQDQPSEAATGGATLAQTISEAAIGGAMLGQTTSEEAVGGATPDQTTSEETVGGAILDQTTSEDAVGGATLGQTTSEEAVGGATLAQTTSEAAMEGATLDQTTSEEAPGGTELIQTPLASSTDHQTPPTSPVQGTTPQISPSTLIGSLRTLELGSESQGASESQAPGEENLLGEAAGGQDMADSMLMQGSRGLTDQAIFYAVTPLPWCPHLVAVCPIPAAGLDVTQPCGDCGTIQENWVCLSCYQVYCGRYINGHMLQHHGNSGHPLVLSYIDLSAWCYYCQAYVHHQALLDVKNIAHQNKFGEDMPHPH
Description: as §1, §2

| SMILES | IC50 [1] [nM] | HDAC6 selectivity (fold) [2] [fold] | IC50 [2] [nM] |
| --- | --- | --- | --- |
| CN1CCC(S(=O)(=O)N(Cc2cn3ccc(-c4nnc(C(F)F)o4)cc3n2)c2ccccc2)CC1 [Compound 3778, N-((7-(5-(difluoromethyl)-1,3,4-oxadiazol-2-yl)imidazo[1,2-a]pyridin-2-yl)methyl)-1-methyl-N-phenylpiperidine-4-sulfonamide] | > 50000 | 549 | 91 |
| O=S(=O)(C1CCN(C2COC2)CC1)N(Cc1cn2ccc(-c3nnc(C(F)F)o3)cc2n1)c1ccccc1 [Compound 3779, N-((7-(5-(difluoromethyl)-1,3,4-oxadiazol-2-yl)imidazo[1,2-a]pyridin-2-yl)methyl)-1-(oxetan-3-yl)-N-phenylpiperidine-4-sulfonamide] | > 50000 | 321 | 156 |
| O=S(=O)(C1CCN(C2CCCCC2)CC1)N(Cc1cn2ccc(-c3nnc(C(F)F)o3)cc2n1)c1ccccc1 [Compound 4218, 1-cyclohexyl-N-((7-(5-(difluoromethyl)-1,3,4-oxadiazol-2-yl)imidazo[1,2-a]pyridin-2-yl)methyl)-N-phenylpiperidine-4-sulfonamide] | > 50000 | 433 | 116 |
| O=S(=O)(C1CCN(C2CCOCC2)CC1)N(Cc1cn2ccc(-c3nnc(C(F)F)o3)cc2n1)c1ccccc1 [Compound 4219, N-((7-(5-(difluoromethyl)-1,3,4-oxadiazol-2-yl)imidazo[1,2-a]pyridin-2-yl)methyl)-N-phenyl-1-(tetrahydro-2H-pyran-4-yl)piperidine-4-sulfonamide] | > 50000 | 482 | 104 |
| CC(=O)N1CCC(S(=O)(=O)N(Cc2cn3ccc(-c4nnc(C(F)F)o4)cc3n2)c2ccccc2)CC1 [Compound 4221, 1-acetyl-N-((7-(5-(difluoromethyl)-1,3,4-oxadiazol-2-yl)imidazo[1,2-a]pyridin-2-yl)methyl)-N-phenylpiperidine-4-sulfonamide] | > 50000 | 364 | 137 |
| CCC(=O)N1CCC(S(=O)(=O)N(Cc2cn3ccc(-c4nnc(C(F)F)o4)cc3n2)c2ccccc2)CC1 [Compound 4222, N-((7-(5-(difluoromethyl)-1,3,4-oxadiazol-2-yl)imidazo[1,2-a]pyridin-2-yl)methyl)-N-phenyl-1-propionylpiperidine-4-sulfonamide] | > 50000 | 229 | 218 |
| O=C(C1CCC1)N1CCC(S(=O)(=O)N(Cc2cn3ccc(-c4nnc(C(F)F)o4)cc3n2)c2ccccc2)CC1 [Compound 4223, 1-(cyclobutanecarbonyl)-N-((7-(5-(difluoromethyl)-1,3,4-oxadiazol-2-yl)imidazo[1,2-a]pyridine-2-yl)methyl)-N-phenylpiperidine-4-sulfonamide] | > 50000 | 392 | 128 |
| COC(=O)N1CCC(S(=O)(=O)N(Cc2cn3ccc(-c4nnc(C(F)F)o4)cc3n2)c2ccccc2)CC1 [Compound 4226, methyl 4-(N-((7-(5-(difluoromethyl)-1,3,4-oxadiazol-2-yl)imidazo[1,2-a]pyridin-2-yl)methyl)-N-phenylsulfamoyl)piperidine-1-carboxylate] | > 50000 | 432 | 116 |
| O=S(=O)(C1CCN(c2ncccn2)CC1)N(Cc1cn2ccc(-c3nnc(C(F)F)o3)cc2n1)c1ccccc1 [Compound 4228, N-((7-(5-(difluoromethyl)-1,3,4-oxadiazol-2-yl)imidazo[1,2-a]pyridin-2-yl)methyl)-N-phenyl-1-(pyrimidin-2-yl)piperidine-4-sulfonamide] | > 50000 | 486 | 103 |

Results, then the compound that gave them:

| IC50 [1] [nM] | HDAC6 selectivity (fold) [2] [fold] | IC50 [2] [nM] | SMILES |
| --- | --- | --- | --- |
| > 50000 | 278 | 180 | CCN1CCC(S(=O)(=O)N(Cc2cn3ccc(-c4nnc(C(F)F)o4)cc3n2)c2ccccc2)CC1 [Compound 4214, N-((7-(5-(difluoromethyl)-1,3,4-oxadiazol-2-yl)imidazo[1,2-a]pyridin-2-yl)methyl)-1-ethyl-N-phenylpiperidine-4-sulfonamide] |
| > 50000 | 275 | 182 | CC(C)N1CCC(S(=O)(=O)N(Cc2cn3ccc(-c4nnc(C(F)F)o4)cc3n2)c2ccccc2)CC1 [Compound 4215, N-((7-(5-(difluoromethyl)-1,3,4-oxadiazol-2-yl)imidazo[1,2-a]pyridin-2-yl)methyl)-1-isopropyl-N-phenylpiperidine-4-sulfonamide] |
| > 50000 | 420 | 119 | CC(CO)N1CCC(S(=O)(=O)N(Cc2cn3ccc(-c4nnc(C(F)F)o4)cc3n2)c2ccccc2)CC1 (stereo not drawn) [Compound 4216, N-((7-(5-(difluoromethyl)-1,3,4-oxadiazol-2-yl)imidazo[1,2-a]pyridin-2-yl)methyl)-1-(1-hydroxypropan-2-yl)-N-phenylpiperidine-4-sulfonamide] |
| > 50000 | 410 | 122 | O=S(=O)(C1CCN(C2CCC2)CC1)N(Cc1cn2ccc(-c3nnc(C(F)F)o3)cc2n1)c1ccccc1 [Compound 4217, 1-cyclobutyl-N-((7-(5-(difluoromethyl)-1,3,4-oxadiazol-2-yl)imidazo[1,2-a]pyridin-2-yl)methyl)-N-phenylpiperidine-4-sulfonamide] |
| > 50000 | 320 | 156 | O=S(=O)(C1CCN(C2CCC(F)(F)CC2)CC1)N(Cc1cn2ccc(-c3nnc(C(F)F)o3)cc2n1)c1ccccc1 [Compound 4220, 1-(4,4-difluorocyclohexyl)-N-((7-(5-(difluoromethyl)-1,3,4-oxadiazol-2-yl)imidazo[1,2-a]pyridin-2-yl)methyl)-N-phenylpiperidine-4-sulfonamide] |
| > 50000 | 354 | 141 | O=C(N1CCC(S(=O)(=O)N(Cc2cn3ccc(-c4nnc(C(F)F)o4)cc3n2)c2ccccc2)CC1)C(F)(F)F [Compound 4224, N-((7-(5-(difluoromethyl)-1,3,4-oxadiazol-2-yl)imidazo[1,2-a]pyridin-2-yl)methyl)-N-phenyl-1-(2,2,2-trifluoroacetyl)piperidine-4-sulfonamide] |
| > 50000 | 530 | 94.4 | CS(=O)(=O)N1CCC(S(=O)(=O)N(Cc2cn3ccc(-c4nnc(C(F)F)o4)cc3n2)c2ccccc2)CC1 [Compound 4225, N-((7-(5-(difluoromethyl)-1,3,4-oxadiazol-2-yl)imidazo[1,2-a]pyridin-2-yl)methyl)-1-(methylsulfonyl)-N-phenylpiperidine-4-sulfonamide] |
| > 50000 | 241 | 208 | CN(C)C(=O)N1CCC(S(=O)(=O)N(Cc2cn3ccc(-c4nnc(C(F)F)o4)cc3n2)c2ccccc2)CC1 [Compound 4227, 4—(N-((7-(5-(difluoromethyl)-1,3,4-oxadiazol-2-yl)imidazo[1,2-a]pyridin-2-yl)methyl)-N-phenylsulfamoyl)-N, N-dimethylpiperidine-1-carboxamide] |
